Experimental data as given in publication PMC5620620, “Comparison of In Vitro Assays in Selecting Radiotracers for In Vivo P-Glycoprotein PET Imaging” (Pharmaceuticals, 2017).

Experiments:
P-gp [1] = test: In vivo P-gp substrate classification from knockout mice and/or tariquidar-treated rats; conditions: for Substrate In Vivo: brain-to-plasma or AUC ratio in at least one strain; for P-gp substrate classification in vivo: cutoff value of 2 for brain-to-plasma and AUC ratios
P-gp (MDR1) = biological target: T1, P-gp (MDR1) (Homo sapiens, UniProt P08183); test: Bidirectional transport of tritiated compounds in MDCKII-MDR1 cells; assay type: in vitro ADME; conditions: MDCK-MDR1; for efflux ratio at 2 h, 1 µM / efflux ratio at 2 h, 50 µM: read-out: ER; for efflux ratio at 2 h, 0.01 µM: human, read-out: ER 0.01 µM
T1 construct: host or cells: MDCKII (canine kidney) cells transfected with human MDR1 cDNA
Experimental: (§1) Madin-Darby canine kidney (MDCK) II cells expressing cDNAs encoding human MDR1 (MDCKII-MDR1 cells) were obtained by TNO from the Netherlands Cancer Institute. […] Cells were counted using an automatic cell counter (Millipore, Bedford, MA, USA). […] The medium was refreshed after 48 h. It has been shown, that under these conditions the human transporter protein MDR1 localizes on the apical plasma membrane of the cells.
(§2) After three days of cell culture on Transwell, the MDCKII-MDR1 monolayers are expected to have developed a transepithelial electrical resistance (TEER) of approximately 70 Ωcm^2 higher than background (empty filter without cells). At the start of each study, TEER was measured to assess the integrity of the monolayers of MDCKII-MDR1 cells in culture medium using the Millicell-ERS epithelial voltohmmeter (Millipore). Monolayers with a TEER value less than 55 Ωcm^2 above background (empty filter) were excluded from the transport assay. […] Cell monolayers were also inspected with a microscope before starting the experiments.
(§3) Transcellular transport studies were performed as described previously with minor modifications.
(§4) After the integrity assessment, culture medium was removed from the filter inserts (apical compartment (A)). The inserts were washed once with warm (37 °C) HBSS, transferred to new 12-well plates which were preincubated with HBSS/HEPES for 18 h at 37 °C, to reduce non-specific binding to the plastic, and washed with warm HBSS. The MDR1-mediated apical to basolateral (A → B) transport in MDCKII-MDR1 cell monolayers was determined by addition of 0.65 mL of a tritiated compound in concentrations of 0.01, 1 and 50 µM to the apical compartment in triplicate. A volume of 1.8 mL of HBSS/HEPES was added to the basolateral compartment. To determine basolateral to apical (B → A) transport, 1.95 mL of a tritiated compound at concentrations of 0.01, 1 and 50 µM was added to the basolateral compartment and 0.5 ml of HBSS/HEPES to the apical compartment. A 150 µL aliquot of the apical (A → B) or basolateral (B → A) compartment was taken at the start of the experiment to measure the initial concentration and to calculate the recovery of radioactivity. […] Aliquots of the apical and basolateral samples (150 and 1600 µL for A → B and 400 and 150 µL for B → A, respectively) and samples of the initial concentration were mixed with 10 mL of liquid scintillant Ultima GoldTM (PerkinElmer Inc.). Radioactivity was determined by LSC on a Tri Carb 3100TR liquid scintillation counter using QuantaSmart^TM software (PerkinElmer Inc.) in which all counts were converted to disintegrations per minute (DPM) using tSIE/AEC (transformed spectral index of external standards coupled to automatic efficiency correction). Background values were measured for each sample sequence using liquid scintillant without test samples. Recovery of radioactivity was calculated as percentage of measured total radioactivity after the experiment versus initial radioactivity.
(§5) Subsequently, the effects of MDR1-inhibitors ketoconazole and tariquidar on the bidirectional transport of the tested tritiated compounds were examined. Stock solutions of the inhibitors ketoconazole (10 mM) and tariquidar (10 mM) were prepared in DMSO. […] These concentrations were based on IC50 values that are known to block P-gp completely.
(§6) A is the surface area of the filter insert (cm^2) and C0 the measured initial concentration, calculated from total DPM on the donor side at t = 0 min (DPM/L).
(§7) To determine the ER for the test compounds, the following equation was used:ER = Papp B → A/Papp A → B(2)

P-gp [2] = biological target: T2, P-gp (Homo sapiens, UniProt P08183); test: as above; assay type: in vitro ADME; conditions: for Substrate In Vitro: ER 0.01 µM; for P-gp substrate behaviour in vitro: concentrations 0.01-50 µM and inhibitors; for ER 0.01 µM: tritiated compound 0.01 µM, Papp B→A/Papp A→B; for Recovery of radioactivity: all experiments, A → B and B → A directions
T2 construct: host or cells: MDCKII (canine kidney) cells transfected with human MDR1 cDNA
Experimental: as §1, §2, §3, §4, §5, §6, §7

[3] = after 5 min; cited from earlier work
[4] = set-up: method as in PMID 26043236; conditions: pH 7.4; cited from earlier work
P-gp [5] = biological target: T2, P-gp; test: Calcein-AM inhibition assay in MDCKII-MDR1 cells; assay type: cell-based; conditions: non-radioactive compounds
Experimental: The calcein-AM experiment was performed in MDCKII-MDR1 cells according to methods described previously. Calcein cell accumulation in the absence and in the presence of test compounds (0,1, 1, 10, 30, 50 and 100 µM) was evaluated and the basal level of fluorescence was measured in untreated cells. EC50 values were determined by fitting the fluorescence increase (in %) versus log[dose].

P-gp (human MDR1) = test system: T3, P-gp (human MDR1); test: Bidirectional transport of tritiated compounds in MDCKII-MDR1 cells; assay type: in vitro ADME; conditions: dog, MDCK-MDR1
T3 construct: host or cells: MDCKII (canine kidney) cells transfected with human MDR1 cDNA

P-gp and/or Bcrp = test: Brain uptake (microPET, biodistribution) in Mdr1a/b(−/−)Bcrp1(−/−) knockout versus wild-type mice; assay type: in vivo; conditions: Mdr1a/b(−/−)Bcrp1(−/−) vs wild-type mice; for Difference in whole brain time-activity curves (SUV) between knockout and wild-type: AUC from 0 to 30 min; for P-gp substrate behaviour in vivo: tracer concentrations
Excerpt: All animal studies were in compliance with the local ethical guidelines. Protocols (DEC 6456C) were approved by the Institutional Animal Care and Use Committee of the University of Groningen. Male FVB wild type mice (33 ± 2 g, 11–12 weeks) and Mdr1a/b^(−/−)Bcrp1^(−/−) constitutive knockout mice (31 ± 3 g, 11–12 weeks) developed from the FVB line were purchased from Taconic (Hudson, NY, USA). After arrival, animals were housed individually and acclimatized for at least 7 days in the Central Animal Facility of the University Medical Center Groningen before experiments. Mice had access to food and water ad libitum and were kept under a 12 h light-dark cycle. During experiments, mice were anesthetized with 2% isoflurane in medical air and kept at a constant temperature using electronically controlled heating pads.
(§8) Mice were injected with radiotracers (3.5 ± 1.6 MBq, 0.1 mL, [^18F]MC198 or [^18F]KE64) in the penile vein under isoflurane anesthesia. Injections were performed with the mice in the microPET camera (microPET Focus 220, Siemens Medical Solutions, Malvern, PA, USA), simultaneously starting a 30 min dynamic emission scan. After each emission scan, a transmission scan of 515 s with a ^57Co point source was performed to correct the emission data for attenuation and scatter. Mice were terminated by cervical dislocation. Several organs and tissues were excised, weighed and radioactivity was measured in a γ-counter (LKB Wallac, Turku, Finland). Radioactivity accumulation in the organs was expressed as SUV, using the following formula: [tissue activity concentration (MBq/g)]/[injected dose (MBq)/body weight (g)]. Metabolites in the terminal plasma and brain samples were determined using a radio-TLC method described elsewhere. TLC-plates were eluted with ethylacetate/methanol 9:1 v/v (Rf [^18F]MC198 = 0.45, Rf[^18F]KE64 = 0.62). PET data were reconstructed as described previously. Inveon Research Workplace software version 4.0 (Siemens, Erlangen, Germany) was used for data analysis. All frames were summed, and PET images were co-registered with an MRI template. A whole brain volume of interest (VOI) based on the MRI template was generated. Radioactivity concentrations were converted to SUV values and plotted as time-activity curves (TAC).

Log D7.4 = assay type: physicochemical; conditions: pH 7.4, this study
[6] = Radioactive metabolites in plasma and brain by radio-TLC; assay type: in vivo; conditions: mice, 45 min p.i.
Experimental: as §8, with “A whole brain volume of interest (VOI) based on the MRI template was generated.” left out

T2 sequence (P08183 whole entry): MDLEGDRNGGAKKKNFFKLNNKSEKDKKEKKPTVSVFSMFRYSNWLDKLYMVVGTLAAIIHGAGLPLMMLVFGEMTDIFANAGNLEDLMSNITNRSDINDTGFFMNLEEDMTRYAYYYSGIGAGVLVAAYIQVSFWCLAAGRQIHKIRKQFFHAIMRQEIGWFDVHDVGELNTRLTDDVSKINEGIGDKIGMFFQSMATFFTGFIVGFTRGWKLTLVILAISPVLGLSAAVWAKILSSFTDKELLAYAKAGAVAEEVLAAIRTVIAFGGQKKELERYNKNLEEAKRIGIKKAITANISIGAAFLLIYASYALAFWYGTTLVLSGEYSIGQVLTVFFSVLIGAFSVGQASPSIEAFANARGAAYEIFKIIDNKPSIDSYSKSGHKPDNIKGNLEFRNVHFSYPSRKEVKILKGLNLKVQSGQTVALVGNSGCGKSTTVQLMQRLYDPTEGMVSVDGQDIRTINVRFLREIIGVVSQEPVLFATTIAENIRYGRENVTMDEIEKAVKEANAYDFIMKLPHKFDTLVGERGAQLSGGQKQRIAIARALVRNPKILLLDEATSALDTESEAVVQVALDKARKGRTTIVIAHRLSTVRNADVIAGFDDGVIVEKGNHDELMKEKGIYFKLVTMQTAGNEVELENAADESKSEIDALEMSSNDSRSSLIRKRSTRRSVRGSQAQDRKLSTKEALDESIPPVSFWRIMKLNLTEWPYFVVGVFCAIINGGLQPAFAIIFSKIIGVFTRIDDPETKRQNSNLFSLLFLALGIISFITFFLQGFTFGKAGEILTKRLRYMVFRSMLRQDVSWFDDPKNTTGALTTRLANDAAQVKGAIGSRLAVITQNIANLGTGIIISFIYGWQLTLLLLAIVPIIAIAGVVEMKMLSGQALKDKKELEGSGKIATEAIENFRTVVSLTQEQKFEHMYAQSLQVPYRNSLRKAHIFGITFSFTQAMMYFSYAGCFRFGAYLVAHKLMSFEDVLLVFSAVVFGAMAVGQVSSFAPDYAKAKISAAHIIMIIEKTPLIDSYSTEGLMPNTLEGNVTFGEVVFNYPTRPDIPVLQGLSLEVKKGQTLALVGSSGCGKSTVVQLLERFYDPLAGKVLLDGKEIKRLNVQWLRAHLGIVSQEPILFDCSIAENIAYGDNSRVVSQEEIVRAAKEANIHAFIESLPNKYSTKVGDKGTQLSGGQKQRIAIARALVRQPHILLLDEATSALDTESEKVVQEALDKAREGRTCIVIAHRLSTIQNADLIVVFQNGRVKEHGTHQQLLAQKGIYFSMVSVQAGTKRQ
T1 sequence (P08183 whole entry): as above

In the case of COc1ccc([C@@](C#N)(CCCNCCc2ccc(OCCF)c(OC)c2)C(C)C)cc1OC [O-FeVer, (R)-O-[^18F]fluoroethylnorverapamil], the “Substrate In Vivo” value (P-gp [1]) is reported as “+ (in vivo brain-to-plasma or AUC ratio > 2 in at least one strain)”, the Papp A→B at 2 h, 0.01 µM (P-gp (MDR1); dog, MDCKII-MDR1 cells, 0.01 µM) is reported as < 2 ×10⁻⁶ cm/s and the Papp A→B at 2 h, 1 µM (P-gp (MDR1); dog, MDCKII-MDR1 cells, 1 µM) is reported as < 2 ×10⁻⁶ cm/s. The efflux ratio at 2 h, 1 µM (P-gp (MDR1); dog, MDCKII-MDR1 cells, 1 µM) was > 30, the efflux ratio at 2 h, 50 µM (P-gp (MDR1); dog, MDCKII-MDR1 cells) was > 2 and the efflux ratio at 2 h, 0.01 µM (P-gp (MDR1)) was 37. The “ER after inhibition with ketoconazole” value (P-gp [2]; MDCKII-MDR1 cells, 0.01 µM + ketoconazole 25 µM) was “higher than 2”, the “Substrate In Vitro” value (P-gp [2]; MDCKII-MDR1 cells) was “+ (Definition as substrate (+) in vitro was ER > 2)” and the “P-gp substrate behaviour in vitro” value (P-gp [2]; MDCKII-MDR1 cells) was “behaved like a P-gp substrate”. The “ER 0.01 µM” value (P-gp [2]; MDCKII-MDR1 cells) was > 30, the Recovery of radioactivity (P-gp [2]) was ≥ 76% and the “Parent compound, of total activity in plasma” value [3] was 20%. For the same compound, the “Log D7.4” value [4] was 1.6 and the EC50 (P-gp [5]) was 2400 nM.

With C[C@H]1O[C@@H](O[C@H]2[C@@H](O)C[C@H](O[C@H]3[C@@H](O)C[C@H](O[C@H]4CC[C@@]5(C)[C@H](CC[C@@H]6[C@@H]5C[C@@H](O)[C@]5(C)[C@@H](C7=CC(=O)OC7)CC[C@]65O)C4)O[C@@H]3C)O[C@@H]2C)C[C@H](O)[C@@H]1O [[^3H]Digoxin, digoxin] the Papp A→B at 2 h, 0.05 µM (P-gp (human MDR1)) was < 1 ×10⁻⁶ cm/s and the Papp B→A at 2 h, 0.05 µM (P-gp (human MDR1)) was > 15 ×10⁻⁶ cm/s.

For COc1cc2c(cc1OC)CN(CC/C=C1\CCCc3c(OCCF)cccc31)CC2 [MC198, (E)-2-(3-(5-(2-Fluoroethoxy)-3,4-dihydronaphthalen-1(2H)-ylidene)propyl)-6,7-dimethoxy-1,2,3,4-tetra-hydroisoquinoline], the “Difference in whole brain time-activity curves (SUV) between knockout and wild-type” value (P-gp and/or Bcrp) was 1.7 fold, the “P-gp substrate behaviour in vivo” value (P-gp and/or Bcrp) was “substrates for P-gp and/or Bcrp in vivo” and the logD (Log D7.4) was 2.3. The “Substrate In Vivo” value (P-gp [1]) was “+ (in vivo brain-to-plasma or AUC ratio > 2 in at least one strain)”, the “P-gp substrate classification in vivo” value (P-gp [1]) was “weak substrates” and the efflux ratio at 2 h, 1 µM (P-gp (MDR1); dog, MDCKII-MDR1 cells, 1 µM) was < 2. The efflux ratio at 2 h, 50 µM (P-gp (MDR1); dog, MDCKII-MDR1 cells) was < 2, the efflux ratio at 2 h, 0.01 µM (P-gp (MDR1)) was 2.1 and the “Substrate In Vitro” value (P-gp [2]; MDCKII-MDR1 cells) was “+ (Definition as substrate (+) in vitro was ER > 2)”. The “P-gp substrate behaviour in vitro” value (P-gp [2]; MDCKII-MDR1 cells) was “some affinity but very low capacity for P-gp mediated transport”, the “ER 0.01 µM” value (P-gp [2]; MDCKII-MDR1 cells) was “above 2” and the “Fraction of intact parent compound in plasma” value [6] was 34%. For the same compound, the EC50 (P-gp [5]) was 270 nM.

For COc1cc2c(cc1OC)CN(CCCC1CCCc3c(OCCF)cccc31)CC2 (stereo not shown) [MC225], the “Substrate In Vivo” value (P-gp [1]) is listed as “+ (in vivo brain-to-plasma or AUC ratio > 2 in at least one strain)” and the “Log D7.4” value [4] is listed as 3.0.

For COc1ccc(CCN(CCF)CCC[C@](C#N)(c2ccc(OC)c(OC)c2)C(C)C)cc1OC [N-FeVer, (R)-N-[^18F]fluoroethylverapamil], the “Substrate In Vivo” value (P-gp [1]) was “+ (in vivo brain-to-plasma or AUC ratio > 2 in at least one strain)”, the efflux ratio at 2 h, 0.01 µM (P-gp (MDR1)) was 2.8 and the “Substrate In Vitro” value (P-gp [2]; MDCKII-MDR1 cells) was “+ (Definition as substrate (+) in vitro was ER > 2)”. The Recovery of radioactivity (P-gp [2]) was ≥ 76%, the “Parent compound, of total activity in plasma” value [3] was 46% and the “Log D7.4” value [4] was 2.0. The EC50 (P-gp [5]) was 1100 nM.

In the case of COc1cc2c(cc1OC)CN(Cc1ccc(-c3ccc(OCCF)cc3)cc1)CC2 [MC224], the “Log D7.4” value [4] is given as 2.9.

In the case of COc1cc2c(cc1OC)CN(CCCCOc1ccc(-c3ccc(OCCF)cc3)cc1)CC2 [KE64, 2-(4-(4′-(2-Fluoroethoxy)biphenyl-4-yloxy)butyl)-6,7-dimethoxy-1,2,3,4-tetrahydroisoquinoline], the “Difference in whole brain time-activity curves (SUV) between knockout and wild-type” value (P-gp and/or Bcrp) is reported as 1.6 fold, the “P-gp substrate behaviour in vivo” value (P-gp and/or Bcrp) is reported as “moderate P-gp substrate in vivo” and the “P-gp substrate behaviour in vivo” value (P-gp and/or Bcrp; listed as [^18F]KE64) is reported as “substrates for P-gp and/or Bcrp in vivo”. For the same compound, the logD (Log D7.4) was 3.2, the “Substrate In Vivo” value (P-gp [1]) was “+ (in vivo brain-to-plasma or AUC ratio > 2 in at least one strain)” and the “P-gp substrate classification in vivo” value (P-gp [1]) was “weak substrates”. The efflux ratio at 2 h, 0.01 µM (P-gp (MDR1)) was 1.9, the “Papp values in both directions (A → B and B → A)” value (P-gp [2]; MDCKII-MDR1 cells, all Papp values) was < 3 ×10⁻⁶ cm/s and the “Fraction of intact parent compound in plasma” value [6] was 26%. The EC50 (P-gp [5]) was 14 nM.
